US4278687A, “Inhibition of biosynthesis of triglycerides by certain N-β-phenethyl-N-thienylalkylamines” (Shell Oil Company, priority 1980, dated 1981)

Test system: enzyme from pig adipose tissue (synthesis of triglycerides)
Assay: Inhibition of triglyceride synthesis by enzyme preparation from pig adipose tissue (14C-glycerol-3-phosphate incorporation)
Type: biochemical
Conditions: test compound 1000 micrograms per milliliter, 5% DMSO, 8 minutes at 37° C; compared to controls without test compound; average of two animals
Procedure: An enzyme was prepared by homogenizing one gram of slices from pig adipose tissue, each slice being approximately 0.3 mm thick, in one-milliliter portions of a liquid medium (Liquid A). The homogenate then was centrifuged (10.000 g×15 minutes), and the supernatant phase (the enzyme) was poured through cheesecloth to remove fat that had risen to the top of the centrifuge tubes.
Liquid A had the following composition (in water):
0.15 M potassium chloride, 1 mM ethylenediaminetetracetic acid, […] Hepes (N-2-hydroxyethylpiperazine-N'-2-ethanesulfonic acid), 1 mM DTT (dithiothreitol), pH=7.0.
A solution of the test compound (Liquid B) was prepared: 10 milligrams of test compound plus 0.5 milliliter dimethylsulfoxide (DMSO) plus 1.83 milliliters of glass-distilled water.
A premix (Liquid C) was freshly prepared before each test, from the following components:
0.163 milliliter of Liquid B (containing the test compound, or for comparison omitting the test compound) was mixed with 0.1 milliliter of Liquid C, 0.05 milliliter of a solution of L-[U-^14 C] glycerol-3-phosphate (containing 5 microcuries of ^14 C per milliliter), 0.01 milliliter of 0.8 M potassium phosphate (pH=7.4), 0.07 milliliter of 0.2 M glycerol-3-phosphate (pH=7.4) and 0.047 milliliter of water. 0.25 milliliter of enzyme then was added. The final concentrations of DMSO and test compound were 5% and 1000 micrograms per milliliter, respectively. The mixture was incubated for 8 minutes at 37° C. A blank control without enzyme was incubated under the same conditions. Then, 3 milliliters of a 1:2 (v/v) mixture of chloroform and methanol was added and thoroughly mixed to terminate the reaction. After 10 minutes, 2 milliliters of chloroform and 1 milliliter of 0.1 N hydrochloric acid were added to the stirred mixture. The mixture was then centrifuged (275 g) for 5 minutes at room temperature. The top layer of the sample was siphoned off. Two milliliters of 0.1 N hydrochloric acid in 50% methanol/water was added, the mixture was centrifuged (275 g) and the top layer was carefully siphoned off. The resulting liquid (the chloroform phase) was transferred to a liquid scintillation vial and air dried. Ten milliliters of a 2:1 (v/v) mixture of toluene and Triton X-100 containing 0.27% New England Nuclear Omnifluor was added, and the radioactivity was determined in a liquid scintillation counter.
Three replicates (samples of enzyme) were conducted per experiment (per animal). The results were reported as the average of the values obtained from the adipose tissue from two experiments (i.e., two different animals).
The percent inhibition by the test compound compared to the controls (no test compound) was determined.

Compound	Percent Inhibition
Cl.OC(CNCC=C(c1ccsc1)c1ccsc1)c1cccc(C(F)(F)F)c1 (stereo not drawn) [Compound 2, alpha-((3,3-di-3-thienyl-2-propenylamino)methyl)-3-(trifluoromethyl)benzenemethanol, hydrochloride]	101
CC(NCCC(c1ccccc1)c1ccsc1)C(O)c1ccccc1.Cl (stereo not drawn) [Compound 1, alpha-(1-(3-phenyl-3-(3-thienyl)propylamino)ethyl)-benzenemethanol, hydrochloride]	94
CC(NCC=C(c1ccsc1)c1ccsc1)C(O)c1ccccc1.Cl (stereo not drawn) [Compound 3, alpha-(1-(3,3-di-3-thienyl-2-propenylamino)ethyl)-benzenemethanol, hydrochloride]	97
CC(C)c1ccc(C(=CCNC(C)C(O)c2ccccc2)c2ccsc2)cc1.Cl (stereo not drawn) [Compound 5, alpha-(1-(3-(4-(1-methylethyl)-phenyl)-3-(3-thienyl)-2-propenylamino)ethyl)benzenemethanol, hydrochloride]	96
Cl.OC(CNCCC(O)(c1ccccc1)c1ccsc1)c1ccc(Cl)cc1 (stereo not drawn) [Compound 4, alpha-(2-(2-(4-chlorophenyl)-2-hydroxyethylamino)-ethyl)-alpha-phenyl-3-thiophenemethanol, hydrochloride]	94
